Laboratory results taken from article PMC4580410, “Characterization of Kbot21 Reveals Novel Side Chain Interactions of Scorpion Toxins Inhibiting Voltage-Gated Potassium Channels” (PLoS ONE, 2015).
Where a SMILES comes first, the peptide text is derived from it. Bridges are numbered along the chain shown (N, C = ends).

Experiments:
[1] = test system: C57/ Bl/6 mice; details: literature value for comparison; cited from earlier work
Experimental: We injected increasing doses, from 0.8 to 25 ng, of Kbot21 to two sets of C57bL/6 mice containing each six individuals by i.c.v. The LD50 value corresponds to […] or 1μg/kg body weight which is 5 times to other LD50 values of some scorpion peptides, such as Maurotoxin, well characterized for their activity on potassium channels (LD50 = 100 ng).

[2] = test system: rKV1.1; assay: Two-electrode voltage-clamp, Xenopus oocytes expressing rKV1.1; format: cell-based, rat; details: 1 μM toxin, TEVC, n ≥ 3
Experimental: (§1) For the expression of the VGPCs (rKV1.1, rKV1.2, hKV1.3, rKV1.4, rKV1.6, Shaker IR, rKV2.1) in Xenopus oocytes, the linearized plasmids were transcribed using the T7 or SP6 mMESSAGE-mMACHINE transcription kit (Ambion, USA). The harvesting of stage V-VI oocytes from anaesthetized female Xenopus laevis frog was previously described. Oocytes were injected with 50 nl of cRNA at a concentration of 1 ng/nl using a micro-injector (Drummond Scientific, USA). The oocytes were incubated in ND96 solution containing (in mM): NaCl, 96; KCl, 2; CaCl2, 1.8; MgCl2, 2 and HEPES, 5 (pH 7.4), supplemented with 50 mg/l gentamycin sulfate. The use of the frogs was in accordance with the license number LA1210239.
(§2) Two-electrode voltage-clamp recordings were performed at room temperature (18–22°C) using a Geneclamp 500 amplifier (Molecular Devices, USA) controlled by a pClamp data acquisition system (Axon Instruments, USA). Whole cell currents from oocytes were recorded 1–4 days after injection. Bath solution composition was ND96 (in mM): NaCl, 96; KCl, 2; CaCl2, 1.8; MgCl2, 2 and HEPES, 5 (pH 7.4). Voltage and current electrodes were filled with 3 M KCl. Resistances of both electrodes were kept between 0.7–1.5 MΩ. The elicited currents were filtered at 1 kHz and sampled at 500 Hz using a four-pole low-pass Bessel filter. Leak subtraction was performed using a-P/4 protocol. […]

[3] = test system: rKV1.2; assay: Two-electrode voltage-clamp, Xenopus oocytes expressing rKV1.2; format: cell-based, rat; details: 1 μM toxin, TEVC, n ≥ 3
Experimental: as §1, §2

[4] = test system: hKV1.3; assay: Two-electrode voltage-clamp, Xenopus oocytes expressing hKV1.3; format: cell-based, human; details: 1 μM toxin, TEVC, n ≥ 3
Experimental: as §1, §2

[5] = test system: rKV1.4; assay: Two-electrode voltage-clamp, Xenopus oocytes expressing rKV1.4; format: cell-based, rat; details: 1 μM toxin, TEVC, n ≥ 3
Experimental: as §1, §2

[6] = target: T1, rKV1.6 (Rattus norvegicus, UniProt P17659); assay: Two-electrode voltage-clamp, Xenopus oocytes expressing rKV1.6; format: cell-based
T1 construct: expressed in transfected cells; host or cells: Xenopus laevis oocytes injected with cRNA
Experimental: as §1
Two-electrode voltage-clamp recordings were performed at room temperature (18–22°C) using a Geneclamp 500 amplifier (Molecular Devices, USA) controlled by a pClamp data acquisition system (Axon Instruments, USA). Whole cell currents from oocytes were recorded 1–4 days after injection. Bath solution composition was ND96 (in mM): NaCl, 96; KCl, 2; CaCl2, 1.8; MgCl2, 2 and HEPES, 5 (pH 7.4). Voltage and current electrodes were filled with 3 M KCl. Resistances of both electrodes were kept between 0.7–1.5 MΩ. The elicited currents were filtered at 1 kHz and sampled at 500 Hz using a four-pole low-pass Bessel filter. Leak subtraction was performed using a-P/4 protocol. KV1.1-KV1.6 and Shaker IR currents were evoked by 500 ms depolarizations to 0 mV followed by a 500 ms pulse to -50 mV, from a holding potential of -90 mV. In order to investigate the current-voltage relationship, current traces were evoked by 10 mV depolarization steps from a holding potential of -90 mV. All data represent at least 3 independent experiments (n ≥ 3) and are presented as mean ± standard error.

[7] = test system: Shaker IR; assay: Two-electrode voltage-clamp, Xenopus oocytes expressing Shaker IR; format: cell-based, insect; details: 1 μM toxin, TEVC, n ≥ 3
Experimental: as §1, §2

[8] = test system: rKV2.1; assay: Two-electrode voltage-clamp, Xenopus oocytes expressing rKV2.1; format: cell-based, rat; details: 1 μM toxin, TEVC, n ≥ 3
Experimental: as §1, §2

T1 sequence (P17659 whole entry): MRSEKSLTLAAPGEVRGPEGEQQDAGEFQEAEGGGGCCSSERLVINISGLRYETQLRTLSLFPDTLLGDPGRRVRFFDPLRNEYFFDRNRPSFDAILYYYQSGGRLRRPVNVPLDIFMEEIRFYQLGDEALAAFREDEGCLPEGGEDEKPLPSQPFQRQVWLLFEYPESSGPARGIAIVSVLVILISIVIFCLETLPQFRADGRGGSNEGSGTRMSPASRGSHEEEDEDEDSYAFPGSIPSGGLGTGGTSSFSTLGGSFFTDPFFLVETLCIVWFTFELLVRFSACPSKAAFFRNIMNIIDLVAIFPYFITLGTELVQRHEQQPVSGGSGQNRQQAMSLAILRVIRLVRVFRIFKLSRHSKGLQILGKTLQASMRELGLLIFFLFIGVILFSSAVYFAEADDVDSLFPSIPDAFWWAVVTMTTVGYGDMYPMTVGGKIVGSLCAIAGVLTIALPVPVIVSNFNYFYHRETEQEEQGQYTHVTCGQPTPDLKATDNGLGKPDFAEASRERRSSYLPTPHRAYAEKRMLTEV

| Compound | LD50 [1] | Inhibition of potassium current [2] | Inhibition of potassium current [3] | Inhibition of potassium current [4] | Inhibition of potassium current [5] | Reversibility of Kv1.6 block upon washout ([6]; 500 nM toxin, current recovered quickly and completely upon washout, n = 3) | Inhibition of potassium current ([6]; 1 μM toxin, Xenopus oocytes, TEVC, n ≥ 3) | V1/2 (midpoint of activation) ([6]; after application of 100 nM Kbot21, control 8.5 ± 0.9 mV, n ≥ 3, mean ± standard error, SEM) | Hill coefficient ([6]; concentration-response curve on Kv1.6, mean ± standard error, n ≥ 3, SEM) | Inhibition of Shaker IR current [7] | Inhibition of potassium current [8] |
| --- | --- | --- | --- | --- | --- | --- | --- | --- | --- | --- | --- |
| Maurotoxin: scorpion peptide well characterized for activity on potassium channels (VSCTGSKDCYAPCRKQTGCPNAKCINKSCKCYGC; UniProt P80719 1-34, looked up) | 100 ng | – | – | – | – | – | – | – | – | – | – |
| CC[C@H](C)[C@@H]1NC(=O)[C@@H]2CSSC[C@H](NC(=O)[C@H](C)NC(=O)[C@H](C)N)C(=O)N[C@@H](Cc3ccc(O)cc3)C(=O)N[C@@H](CO)C(=O)N[C@@H](CO)C(=O)N[C@@H](CC(=O)O)C(=O)N[C@H]3CSSC[C@H](NC(=O)[C@H](CCCCN)NC(=O)[C@H](CO)NC(=O)[C@H](CC(=O)O)NC1=O)C(=O)N[C@@H](CCCCN)C(=O)N[C@H](C(=O)N[C@@H](Cc1ccc(O)cc1)C(=O)N[C@@H](CCCCN)C(=O)O)CSSC[C@H](NC(=O)[C@H](CCCCN)NC(=O)[C@H](C(C)C)NC(=O)[C@H](CCCNC(=N)N)NC3=O)C(=O)N[C@@H](CCCNC(=N)N)C(=O)N[C@@H](C)C(=O)N[C@@H](CCSC)C(=O)NCC(=O)N[C@@H](Cc1ccccc1)C(=O)N[C@@H](CO)C(=O)N[C@@H](CO)C(=O)NCC(=O)N[C@@H](CCCCN)C(=O)N2 [Kbot21] (H-AACYSSDCRVKCRAMGFSSGKCIDSKCKCYK-OH; disulfide 3-22, 8-27, 12-29 (inferred); N-terminus and C-terminus assumed) | – | completely inhibited | completely inhibited | completely inhibited | failed to exert any activity | reversible | completely inhibited | 6.9 ± 2.9 mV | 1.1 ± 0.1 | 65% | failed to exert any activity |
